Test results taken from patent US9226509B2, “Phagodeterrent compounds of fungal origin” (Consiglio Nazionale Delle Ricerche, priority 2011, dated 2016).

Tested on: aphid Rhopalosiphum padi
Test: Assay of the phagodeterrent activity of the R—OH alcohols (two-leaf choice test on wheat leaves in Petri dishes)
Format: in vivo
Conditions: for Bonferroni test: Treated media (mean number of aphids on treated leaves): wheat leaves, recorded each hour for 8 hours; for Bonferroni test: significance of treated vs control media: treated vs 5% methanol control leaf
Procedure: Treatment of wheat leaves consisted of immersion of the same for 10 seconds in aqueous suspensions of 5% methanol of the different alcohols, some of which were also tested at different concentrations.
As a control, the same number of leaves was prepared by immersion in an aqueous solution of 5% methanol only.
Assay of the Phaqodeterrent Activity of the R—OH Alcohols:
Petri dishes 9 cm in diameter were used, into each of which two wheat leaves were arranged in parallel and separated from one another by a distance of approximately 4 cm; one leaf was treated with the suspension in 5% methanol of alcohol at various concentrations, and the other control leaf was washed with a solution of 5% methanol. Aphids of the species Rhopalosiphum padi were introduced to the dishes (one per dish) at equal distance from the two leaves.
For each test, 10 aphids were used and the same test was repeated at least 12 times, for at least 120 aphids. The number of aphids present on the treated leaves and on the control leaves was recorded each hour for a total of 8 hours.
The raw data relating to the food choices of the aphids were analysed using the Generalised Linear Model (GLM) procedure for repeated measurements (SPSS release 15.01) and reported in Table 1. The differences of the media between the number of aphids per leaf at each […] and the number of aphids on corresponding control leaves were analysed and corrected by using the Bonferroni test for multiple comparisons.

[1] = alcohol 1.2 mM in 5% methanol aqueous suspension
[2] = alcohol 0.15 mM in 5% methanol aqueous suspension
[3] = alcohol 0.3 mM in 5% methanol aqueous suspension
[4] = alcohol 0.6 mM in 5% methanol aqueous suspension

Compound | Bonferroni test: Treated media (mean number of aphids on treated leaves) [1] | Bonferroni test: significance of treated vs control media (alcohol 1.2 mM) | Bonferroni test: Treated media (mean number of aphids on treated leaves) [2] | Bonferroni test: significance of treated vs control media (alcohol 0.15 mM) | Bonferroni test: Treated media (mean number of aphids on treated leaves) [3] | Bonferroni test: significance of treated vs control media (alcohol 0.3 mM) | Bonferroni test: Treated media (mean number of aphids on treated leaves) [4] | Bonferroni test: significance of treated vs control media (alcohol 0.6 mM) | Bonferroni test: Treated media (mean number of aphids on treated leaves) (alcohol 0.075 mM in 5% methanol aqueous suspension) | Bonferroni test: significance of treated vs control media (alcohol 0.075 mM)
CCCCCCCC/C=C\CCCCCCCCO [Cis-9-octadecenol] | 2.281 ± 0.283 | ** (** P < 0.01) | – | – | – | – | – | – | – | –
CCCCCCCCCCCCCCCCCCCO [Nonadecanol] | 3.427 ± 0.391 | * (*P < 0.05) | – | – | – | – | – | – | – | –
CCCCCCCCCCCCCCCCO [Hexadecanol] | 1.308 ± 0.315 | ** (** P < 0.01) | 3.938 ± 0.429 | * (*P < 0.05) | 2.635 ± 0.323 | ** (** P < 0.01) | 2.281 ± 0.371 | ** (** P < 0.01) | – | –
CCCCCCCCCCCCCCCCCCCCO [Eicosanol] | 3.042 ± 0.303 | ** (** P < 0.01) | – | – | – | – | – | – | – | –
Octadecenol | 2.469 ± 0.333 | ** (** P < 0.01) | – | – | – | – | – | – | – | –
CCCCCCCCCCCCCCCCCO [Heptadecanol] | 1.094 ± 0.294 | ** (** P < 0.01) | 3.240 ± 0.410 | ** (** P < 0.01) | 3.063 ± 0.532 | ** (** P < 0.01) | 2.177 ± 0.298 | ** (** P < 0.01) | – | –
CCCCCCCCCCCCCCCO [Pentadecanol] | 1.365 ± 0.301 | ** (** P < 0.01) | 3.406 ± 0.405 | ** (** P < 0.01) | 2.271 ± 0.283 | ** (** P < 0.01) | 2.385 ± 0.237 | ** (** P < 0.01) | 3.073 ± 0.335 | ** (** P < 0.01)
CCCCCCCCCCCCCCO [Tetradecanol] | 1.938 ± 0.322 | ** (** P < 0.01) | 2.375 ± 0.370 | ** (** P < 0.01) | 3.271 ± 0.217 | ** (** P < 0.01) | 2.365 ± 0.264 | ** (** P < 0.01) | – | –
